Source: patent US8192962B2, “Processes for detecting toxic substances” (Daikin Industries, Ltd., priority 2001, dated 2012)

System: Mitochondria-located protein genes
Assay: DNA chip mRNA expression in yeast, mitochondria-located protein genes (Table 2)
Format: cell-based, Saccharomyces cerevisiae S288C
Conditions: cells incubated two hours with the chemical substance
How it was run: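 Chemical exposure: 2 h, log-phase S. cerevisiae S288C, YPD, 25° C., dose set to inhibit growth without death. Profiling: mRNA labeled by reverse transcription with Cy3- or Cy5-dUTP, hybridized to whole-genome array. Output: fluorescence ratio against untreated culture.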

## CCCCCCCCCCCCc1ccc(S(=O)(=O)[O-])cc1.[Na+] [(17), sodium dodecylbenzosulfonate]
Yeast gene YAL039C
  The level of expressed mRNA in the presence of chemical substance/The level of expressed mRNA in the absence of chemical substance: 1.4
Yeast gene YBL022C
  The level of expressed mRNA in the presence of chemical substance/The level of expressed mRNA in the absence of chemical substance: 0.9
Yeast gene YBL030C
  The level of expressed mRNA in the presence of chemical substance/The level of expressed mRNA in the absence of chemical substance: 1.0
Yeast gene YBL038W
  The level of expressed mRNA in the presence of chemical substance/The level of expressed mRNA in the absence of chemical substance: 1.2
Yeast gene YBL099W
  The level of expressed mRNA in the presence of chemical substance/The level of expressed mRNA in the absence of chemical substance: 0.7
Yeast gene YBR003W
  The level of expressed mRNA in the presence of chemical substance/The level of expressed mRNA in the absence of chemical substance: 1.1
Yeast gene YBR044C
  The level of expressed mRNA in the presence of chemical substance/The level of expressed mRNA in the absence of chemical substance: 0.9
Yeast gene YBR091C
  The level of expressed mRNA in the presence of chemical substance/The level of expressed mRNA in the absence of chemical substance: 1.0
Yeast gene YBR122C
  The level of expressed mRNA in the presence of chemical substance/The level of expressed mRNA in the absence of chemical substance: 0.9
Yeast gene YBR185C
  The level of expressed mRNA in the presence of chemical substance/The level of expressed mRNA in the absence of chemical substance: 0.8
Yeast gene YBR221C
  The level of expressed mRNA in the presence of chemical substance/The level of expressed mRNA in the absence of chemical substance: 0.9
Yeast gene YBR251W
  The level of expressed mRNA in the presence of chemical substance/The level of expressed mRNA in the absence of chemical substance: 0.9
Yeast gene YBR282W
  The level of expressed mRNA in the presence of chemical substance/The level of expressed mRNA in the absence of chemical substance: 0.9
Yeast gene YCL057W
  The level of expressed mRNA in the presence of chemical substance/The level of expressed mRNA in the absence of chemical substance: 0.9
Yeast gene YCR046C
  The level of expressed mRNA in the presence of chemical substance/The level of expressed mRNA in the absence of chemical substance: 1.3
Yeast gene YCR083W
  The level of expressed mRNA in the presence of chemical substance/The level of expressed mRNA in the absence of chemical substance: 1.3
Yeast gene YDL067C
  The level of expressed mRNA in the presence of chemical substance/The level of expressed mRNA in the absence of chemical substance: 1.2
Yeast gene YDL181W
  The level of expressed mRNA in the presence of chemical substance/The level of expressed mRNA in the absence of chemical substance: 1.5
Yeast gene YDL198C
  The level of expressed mRNA in the presence of chemical substance/The level of expressed mRNA in the absence of chemical substance: 1.5
Yeast gene YDR079W
  The level of expressed mRNA in the presence of chemical substance/The level of expressed mRNA in the absence of chemical substance: 1.1
Yeast gene YDR178W
  The level of expressed mRNA in the presence of chemical substance/The level of expressed mRNA in the absence of chemical substance: 1.2
Yeast gene YDR231C
  The level of expressed mRNA in the presence of chemical substance/The level of expressed mRNA in the absence of chemical substance: 1.2
Yeast gene YDR258C
  The level of expressed mRNA in the presence of chemical substance/The level of expressed mRNA in the absence of chemical substance: 1.3
Yeast gene YDR298C
  The level of expressed mRNA in the presence of chemical substance/The level of expressed mRNA in the absence of chemical substance: 1.1
Yeast gene YDR347W
  The level of expressed mRNA in the presence of chemical substance/The level of expressed mRNA in the absence of chemical substance: 0.9
Yeast gene YDR377W
  The level of expressed mRNA in the presence of chemical substance/The level of expressed mRNA in the absence of chemical substance: 1.2
Yeast gene YDR529C
  The level of expressed mRNA in the presence of chemical substance/The level of expressed mRNA in the absence of chemical substance: 1.0
Yeast gene YEL024W
  The level of expressed mRNA in the presence of chemical substance/The level of expressed mRNA in the absence of chemical substance: 1.1
Yeast gene YEL039C
  The level of expressed mRNA in the presence of chemical substance/The level of expressed mRNA in the absence of chemical substance: 0.7
Yeast gene YER178W
  The level of expressed mRNA in the presence of chemical substance/The level of expressed mRNA in the absence of chemical substance: 1.1
Yeast gene YFL016C
  The level of expressed mRNA in the presence of chemical substance/The level of expressed mRNA in the absence of chemical substance: 1.2
Yeast gene YGL018C
  The level of expressed mRNA in the presence of chemical substance/The level of expressed mRNA in the absence of chemical substance: 0.8
Yeast gene YGL187C
  The level of expressed mRNA in the presence of chemical substance/The level of expressed mRNA in the absence of chemical substance: 0.9
Yeast gene YGL191W
  The level of expressed mRNA in the presence of chemical substance/The level of expressed mRNA in the absence of chemical substance: 1.2
Yeast gene YGR008C
  The level of expressed mRNA in the presence of chemical substance/The level of expressed mRNA in the absence of chemical substance: 1.7
Yeast gene YGR028W
  The level of expressed mRNA in the presence of chemical substance/The level of expressed mRNA in the absence of chemical substance: 1.5
Yeast gene YGR062C
  The level of expressed mRNA in the presence of chemical substance/The level of expressed mRNA in the absence of chemical substance: 0.9
Yeast gene YGR076C
  The level of expressed mRNA in the presence of chemical substance/The level of expressed mRNA in the absence of chemical substance: 0.9
Yeast gene YGR082W
  The level of expressed mRNA in the presence of chemical substance/The level of expressed mRNA in the absence of chemical substance: 0.9
Yeast gene YGR174C
  The level of expressed mRNA in the presence of chemical substance/The level of expressed mRNA in the absence of chemical substance: 1.3
Yeast gene YGR244C
  The level of expressed mRNA in the presence of chemical substance/The level of expressed mRNA in the absence of chemical substance: 1.9
Yeast gene YHR008C
  The level of expressed mRNA in the presence of chemical substance/The level of expressed mRNA in the absence of chemical substance: 0.9
Yeast gene YIL155C
  The level of expressed mRNA in the presence of chemical substance/The level of expressed mRNA in the absence of chemical substance: 1.1
Yeast gene YJL096W
  The level of expressed mRNA in the presence of chemical substance/The level of expressed mRNA in the absence of chemical substance: 1.1
Yeast gene YJL102W
  The level of expressed mRNA in the presence of chemical substance/The level of expressed mRNA in the absence of chemical substance: 1.0
Yeast gene YJL133W
  The level of expressed mRNA in the presence of chemical substance/The level of expressed mRNA in the absence of chemical substance: 0.8
Yeast gene YJL166W
  The level of expressed mRNA in the presence of chemical substance/The level of expressed mRNA in the absence of chemical substance: 1.7
Yeast gene YJL180C
  The level of expressed mRNA in the presence of chemical substance/The level of expressed mRNA in the absence of chemical substance: 0.9
Yeast gene YJR045C
  The level of expressed mRNA in the presence of chemical substance/The level of expressed mRNA in the absence of chemical substance: 0.7
Yeast gene YJR077C
  The level of expressed mRNA in the presence of chemical substance/The level of expressed mRNA in the absence of chemical substance: 1.0
